From patent US20240409582A1, “DESIGN AND CHARACTERIZATION OF INHIBITORY PEPTIDES (IPEPS) DERIVED FROM OF MIEN 1 PROTEIN SEQUENCE” (priority 2022, published 2024)
Entries after “also recorded” stand apart in the source; their conditions may differ.

Key:
MDA-MB-231 cells [1] = experiment: Wound healing assay; format: cell-based, human; conditions: MDA-MB-231, dose-dependent, sub-IC50 concentrations, 18 h
Procedure: Wound healing assay: The wound-healing assay on highly metastatic MDA-MB-231 cells was performed to check the anti-migratory activity of the peptides. MDA-MB-231 cells were plated in a six-well tissue culture plate to form a sub-confluent cell monolayer. The monolayer was scraped with a sterile 200 μL pipette tip in the middle of the culture well to produce equal-sized wounds. Cell debris was removed and the scratched cell monolayer was supplemented with fresh media containing sub-IC 50 concentrations of MIEN1-derived peptide and its analogs. Wound areas were measured by ImageJ software after 18 h and were compared to control.

MDA-MB-231 cells [2] = experiment: Transwell invasion assay; format: cell-based, human; conditions: MDA-MB-231, dose-dependent
Procedure: Transwell Invasion Assay: The capacity of human breast cancer MDA-MB-231 cells to pass through a polyethylene terephthalate membrane (6.4 mm diameter; 8 µm pore size) was measured using transwell chambers (Corning Life Sciences) in 24-well tissue culture plates. The MDA-MB-231 were pre-treated with the increasing concentrations of each peptide for 24 h in a 0.1% FBS containing DMEM media. Next day, cells were dislodged by trypsin and 40,000 cells/well were resuspended in a serum-free DMEM containing the second treatment of peptides and were added to the upper chamber, and 10% FBS containing media was added to the bottom chambers. After incubation for another 24 h, non-invasive cells on the upper surface of the membrane were carefully removed with a cotton swab; cells were fixed in 4% paraformaldehyde solution (Affymetrix USB) for 15 minutes followed by a PBS wash; the membrane insert was then fixed with ice-cold methanol for 20 minutes followed by staining with 0.25% crystal violet. The numbers of invaded cells were counted in random fields in Image J, and results were expressed as an average number of invaded cells compared with control.

[3] = system: focal adhesion kinase (FAK) phosphorylation at tyrosine 925; experiment: Western blot, phosphorylation of FAK; format: cell-based, human; conditions: MDA-MB-231 cell lysates, 48 h
Procedure: (§1) Western blot analysis: MDA-MB-231 cells and DU-145 cells were treated with all the test peptides for 48 h. Cell lysates were prepared, and cellular protein was extracted using RIPA lysis buffer (Millipore). […] After blocking with 5% bovine serum albumin, the membrane was incubated with the primary antibodies specific for various proteins at 4° C. overnight. After primary antibody incubation, membrane was washed thrice in TBS containing 0.1% Tween-20 for 5 min each and then incubated with appropriate HRP-conjugated secondary antibody. The immunoreactive protein bands were visualized by enhanced chemiluminescence (ECL) on Alpha Innotech chemiluminescent detection system.

[4] = system: phosphorylated cofilin (inactive cofilin); experiment: Western blot, phosphorylated cofilin; format: cell-based, human; conditions: whole cell lysates of MDA-MB-231 and DU-145 cells, 48 h
Procedure: as §1

[5] = system: phosphorylation of src at tyrosine 416; experiment: Western blot, phosphorylation of src; format: cell-based, human; conditions: MDA-MB-231, 48 h
Procedure: as §1

[6] = system: EMT genes (E-cadherin, N-Cadherin, SLUG, SNAIL, MMP-9, Zeb-1) in DU-145 prostate cancer cells; experiment: RT-qPCR of EMT genes in DU-145 cells; format: cell-based, human; conditions: DU-145, qPCR
Procedure: RT-qPCR Method: The changes in the mRNA levels of various genes in response to the peptide treatment in DU-145 cells were examined. Briefly, total RNA was purified using the TRIzol reagent (Invitrogen) according to the manufacturer's instructions. 1 μg of total RNA was reverse transcribed into cDNA using the Superscript-III First-Strand Synthesis kit (Invitrogen) following the manufacturer's protocol. RT-qPCR was performed with the SYBR Green Master Mix (Invitrogen) in a Realplex2 Mastercycler ep gradient S thermal cycler (Eppendorf). The PCR program followed for all the primers was an activation at 95° C. for 15 min, followed by 40 cycles of 95° C. for 30 sec, 54° C. for 1 min, and 72° C. for 45 sec. The reaction was finally put to hold at 4 C. The primers were synthesized by Integrated DNA Technologies (Coralville, IA and are described in Table 2. 18S was used as the reference genes for the mRNA levels. Fold-expression was calculated according to the ΔΔCt method.

[7] = system: MDA-MB-231 orthotopic tumors; experiment: Orthotopic breast cancer model in athymic nude mice; format: in vivo; conditions: for tumor growth: 30 mg/kg peritumoral every alternate day, 30 days; for decrease of tumor volume: 30 mg/kg peritumoral on alternate days, vs control
Procedure: Orthotropic Breast Cancer Models in Mice: All in vivo experiments were conducted on 6-8-week-old athymic nude mice (Charles River). MDA-M13-231 (1.5×10^6) cells were suspended in 50% Matrigel in DMEM high glucose (vol/vol) on ice for mammary fat pad injection. The control group received the same volume of matrigel (Corning Cat #356234) and media but no cells. […] Tumor volume was measured using a digital Vernier caliper on alternate days. The tumor volumes (mm3) were calculated using the following formula V=(W2×L)/2 (V, tumor volume: W, tumor width; L, tumor length). Mice were euthanized when rumors in the control group reached˜10% of body weight. At the end of the experiment, all animals were weighed, euthanized, and liver, lung, spleen, kidney brain, and tumors were harvested. The weights of tumors and organs were recorded.

MDA-MB-231 cells [8] = experiment: RNA-seq transcriptome of MDA-MB-231 cells after peptide treatment; format: cell-based, human; conditions: MDA-MB-231, RNA-seq
Procedure: RNeasy Mini Kit (Cat #74106, Qiagen,) was used for RNA isolation and all procedures were performed according to the manufacturer's specification. The purification included 15 minutes of in-column DNase I (Cat #79254, Qiagen,) treatment. […] The quality was controlled using Agilent Tapestation and Qubit 4 fluorometer. Sequencing was on an illumina NextSeq 550 system as per the recommended protocol. Raw sequencing files were adapter trimmed and quality filtered using fastp. The reads were mapped to hg38 reference genome using Hisat2. Differential gene expression analysis was performed using Deseq2.

## LAIAVK [LA3IK]
MDA-MB-231 cells [1]
  number of migrated cells in the wound healing assay: significantly reduced number of migrated cells
MDA-MB-231 cells [2]
  number of invaded cells: considerable decrease in the number of invaded cells
[3]
  phosphorylation of FAK at tyrosine 925: inhibited
[3]; listed as LA31K
  phosphorylation of FAK at tyrosine 925: marked inhibition
[4]
  phosphorylated cofilin: accumulation of phosphorylated cofilin
[5]
  phosphorylation of src at tyrosine 416: inhibited
[5]; listed as LA31K
  phosphorylation of src at tyrosine 416: marked inhibition
[6]
  gene expression of SLUG, SNAIL, MMP 9, N-Cadherin and Zeb-1: significant decrease
  gene expression of epithelial marker E-Cadherin: concomitant increase
[7]
  tumor growth: decreased tumor growth significantly
  decrease of tumor volume: 75.39%
[7]; 30 mg/kg, human tumor equivalent
  response as per RECIST: partial response
MDA-MB-231 cells [8]
  changes in the transcriptome: inhibited genes responsible for migration and cancer progression

## RPPCVIL [RP-7]
MDA-MB-231 cells [1]
  number of migrated cells in the wound healing assay: significantly reduced number of migrated cells
MDA-MB-231 cells [2]
  number of invaded cells: considerable decrease in the number of invaded cells
[3]
  phosphorylation of FAK at tyrosine 925: inhibited; also recorded: marked inhibition
[4]
  phosphorylated cofilin: accumulation of phosphorylated cofilin
[5]
  phosphorylation of src at tyrosine 416: inhibited; also recorded: marked inhibition
[6]
  gene expression of SLUG, SNAIL, MMP 9, N-Cadherin and Zeb-1: significant decrease
  gene expression of epithelial marker E-Cadherin: concomitant increase
[7]
  tumor growth: decreased tumor growth significantly
  decrease of tumor volume: 37.43%
